{"source": "paper PMC7391777", "about": "“Inhibition of acetyl-CoA carboxylase by spirotetramat causes growth arrest and lipid depletion in nematodes” (Scientific Reports, 2020)", "molecular_target": "T1, C. elegans ACC (POD-2) (Caenorhabditis elegans, UniProt H2L0M0)", "T1 construct": "native enzyme in total protein extract of C. elegans pellet, not purified", "T1 sequence (H2L0M0 1-2165)": "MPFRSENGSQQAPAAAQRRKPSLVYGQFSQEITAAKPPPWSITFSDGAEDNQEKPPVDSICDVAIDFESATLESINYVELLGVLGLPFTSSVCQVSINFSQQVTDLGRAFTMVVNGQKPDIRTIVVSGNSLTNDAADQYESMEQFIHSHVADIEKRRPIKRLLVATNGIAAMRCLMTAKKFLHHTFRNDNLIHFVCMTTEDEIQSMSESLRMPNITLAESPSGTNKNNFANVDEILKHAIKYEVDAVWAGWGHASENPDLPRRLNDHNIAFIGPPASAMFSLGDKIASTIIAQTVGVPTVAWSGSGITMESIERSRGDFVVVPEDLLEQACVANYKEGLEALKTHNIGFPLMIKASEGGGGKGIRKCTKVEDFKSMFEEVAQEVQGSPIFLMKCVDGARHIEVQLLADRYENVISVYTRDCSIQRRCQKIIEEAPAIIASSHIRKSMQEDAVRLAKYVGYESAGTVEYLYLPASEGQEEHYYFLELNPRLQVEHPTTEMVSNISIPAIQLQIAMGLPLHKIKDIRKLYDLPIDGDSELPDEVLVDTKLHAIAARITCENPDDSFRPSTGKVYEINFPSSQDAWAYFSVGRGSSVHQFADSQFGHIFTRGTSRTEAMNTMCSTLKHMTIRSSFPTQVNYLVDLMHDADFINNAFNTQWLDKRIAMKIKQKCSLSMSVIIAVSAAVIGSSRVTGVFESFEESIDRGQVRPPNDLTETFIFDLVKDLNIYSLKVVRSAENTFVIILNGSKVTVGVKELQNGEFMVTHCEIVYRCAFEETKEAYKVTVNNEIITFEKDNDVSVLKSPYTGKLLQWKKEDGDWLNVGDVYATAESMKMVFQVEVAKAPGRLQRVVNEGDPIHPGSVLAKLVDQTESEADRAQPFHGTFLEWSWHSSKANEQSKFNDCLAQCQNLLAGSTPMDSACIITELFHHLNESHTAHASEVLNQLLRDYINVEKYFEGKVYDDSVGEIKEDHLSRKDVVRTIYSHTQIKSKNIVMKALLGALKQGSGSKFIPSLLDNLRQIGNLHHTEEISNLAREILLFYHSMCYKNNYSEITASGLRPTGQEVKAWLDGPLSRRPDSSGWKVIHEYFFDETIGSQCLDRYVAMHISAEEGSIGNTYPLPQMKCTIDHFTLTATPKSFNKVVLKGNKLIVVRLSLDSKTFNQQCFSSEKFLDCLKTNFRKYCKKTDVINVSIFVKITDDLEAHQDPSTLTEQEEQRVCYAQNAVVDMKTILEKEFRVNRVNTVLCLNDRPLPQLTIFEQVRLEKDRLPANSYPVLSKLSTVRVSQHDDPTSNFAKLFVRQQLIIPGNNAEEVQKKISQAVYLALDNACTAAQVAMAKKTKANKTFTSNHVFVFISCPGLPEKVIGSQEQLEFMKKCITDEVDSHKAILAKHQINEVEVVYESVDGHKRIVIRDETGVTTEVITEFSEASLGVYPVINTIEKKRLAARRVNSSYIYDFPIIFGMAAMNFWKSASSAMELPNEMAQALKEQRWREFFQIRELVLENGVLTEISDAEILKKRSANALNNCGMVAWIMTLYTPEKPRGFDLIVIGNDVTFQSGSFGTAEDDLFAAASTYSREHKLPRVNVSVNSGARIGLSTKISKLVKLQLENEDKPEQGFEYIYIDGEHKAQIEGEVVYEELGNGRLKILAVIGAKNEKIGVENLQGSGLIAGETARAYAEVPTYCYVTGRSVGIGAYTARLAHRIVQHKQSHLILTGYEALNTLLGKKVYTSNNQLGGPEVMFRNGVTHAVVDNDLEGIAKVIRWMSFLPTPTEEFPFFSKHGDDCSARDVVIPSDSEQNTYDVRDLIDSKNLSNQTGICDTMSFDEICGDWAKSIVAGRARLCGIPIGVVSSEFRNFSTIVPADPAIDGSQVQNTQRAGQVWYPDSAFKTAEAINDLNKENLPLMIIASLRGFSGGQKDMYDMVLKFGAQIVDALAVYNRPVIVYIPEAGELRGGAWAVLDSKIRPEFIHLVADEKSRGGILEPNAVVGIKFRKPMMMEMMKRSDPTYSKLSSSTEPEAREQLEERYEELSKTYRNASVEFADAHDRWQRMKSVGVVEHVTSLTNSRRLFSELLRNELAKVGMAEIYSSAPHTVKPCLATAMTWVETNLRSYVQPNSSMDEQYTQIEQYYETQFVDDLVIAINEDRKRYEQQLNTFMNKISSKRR", "experiment": "ACC activity in total protein extract, radiolabeled sodium bicarbonate", "assay_type": "biochemical", "details": "total protein extract of C. elegans", "data": [{"smiles": "COC1CCC2(CC1)NC(=O)C(c1cc(C)ccc1C)=C2O", "note": "(stereo not shown) [SPT-enol]", "values": [{"measurement": "IC50", "value": 50, "unit": "µM"}]}]}
